Measurements reported in publication PMC9363231, “High‐resolution analysis of individual spike peptide‐specific CD4 ^+ T‐cell responses in vaccine recipients and COVID‐19 patients” (Clinical & Translational Immunology, 2022).
Where two headings read alike, the source gives them in different places.

Columns and labels:
Experiment in all cases: biochemical
Format in all cases: binding
[1] = biological target: HLA-DRB1*01:01 (Homo sapiens, UniProt P01903+P01911, A100R/D57E/F55L/F60I/F76Y/I96L/L162R/M171V/P40L/Q125E/R42F/V115G/Y59C)
[2] = biological target: HLA-DRB1*03:01 (Homo sapiens, UniProt P01903+P01911, A100K/A102G/A103R/A169T/F55Y/I96L/K41T/L162R/M171V/P40S/Q125H/Q178H/Q39Y/R42S/S66N/T106N/T262R/W38E/Y61H)
[3] = biological target: HLA-DRB1*04:01 (Homo sapiens, UniProt P01903+P01911, A100K/A169T/F76Y/I96L/K127E/L162R/M171V/N62H/P40V/Q125Y/R42H/S133A/S149N/S66Y/V115G/V209L/W38E)
[4] = biological target: HLA-DRB1*04:05 (Homo sapiens, UniProt P01903+P01911, A100R/A169T/D86S/F76Y/I96L/K127E/L162R/M171V/N62H/P40V/Q125Y/R42H/S133A/S149N/S66Y/V115G/V209L/W38E)
[5] = biological target: HLA-DRB1*07:01 (Homo sapiens, UniProt P01903+P01911, A100R/A102G/A103Q/D57E/D86V/E43K/F76Y/K127E/L162R/M171V/P40G/Q125H/Q99D/R33Q/R42Y/R54Q/S133A/S66F/T210M/V115G/Y107V/Y59L/Y89S)
[6] = biological target: HLA-DRB1*08:02 (Homo sapiens, UniProt P01903+P01911, A100R/A103L/A169T/F76Y/H45Y/I96F/K41T/L162R/M171V/P40S/Q125H/Q178H/Q39Y/Q99D/R218S/R42G/S66Y/V115G/W38E)
[7] = biological target: HLA-DRB1*09:01 (Homo sapiens, UniProt P01903+P01911, A100R/A103E/D57H/D86V/F55Y/F60I/F76Y/I96F/K127E/L162R/M171V/P40D/Q125H/Q99R/R33Q/R42F/S133A/S66N/T210M/V115G/W38K/Y107V/Y59G/Y89S)
[8] = biological target: HLA-DRB1*11:01 (Homo sapiens, UniProt P01903+P01911, A100R/A169T/A87E/I96F/K41T/L162R/M171V/P40S/Q125H/Q178H/Q39Y/Q99D/R42S/S66Y/T262R/V115G/W38E)
[9] = biological target: HLA-DRB1*12:01 (Homo sapiens, UniProt P01903+P01911, A100R/A169T/D57E/D86V/F55L/H45Y/K41T/L162R/M171V/P40S/Q125H/Q178H/Q39Y/Q99D/R42G/S66L/T262R/V114A/V67L/W38E/Y59H/Y61H/Y89S)
[10] = biological target: HLA-DRB1*13:02 (Homo sapiens, UniProt P01903+P01911, A100E/A169T/K41T/L162R/M171V/P40S/Q125H/Q178H/Q39Y/Q99D/R42S/S66N/T262R/V115G/W38E/Y61H)
[11] = biological target: HLA-DRB1*15:01 (Homo sapiens, UniProt P01903+P01911)

Chain of HLA-DRB1*11:01 (P01903 26-254 limits assumed, other chains not shown): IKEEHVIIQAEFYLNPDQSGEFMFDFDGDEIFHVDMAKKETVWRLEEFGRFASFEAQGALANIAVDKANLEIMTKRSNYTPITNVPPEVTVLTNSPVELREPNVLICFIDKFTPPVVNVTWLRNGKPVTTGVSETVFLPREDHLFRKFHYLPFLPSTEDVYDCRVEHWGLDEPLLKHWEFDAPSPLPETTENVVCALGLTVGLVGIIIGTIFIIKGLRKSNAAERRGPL
Chain of HLA-DRB1*03:01 (P01903 26-254, other chains not shown): as the sequence (P01903 26-254 limits assumed, other chains not shown) above
Chain of HLA-DRB1*13:02 (P01903 26-254 limits assumed, other chains not shown): as above

| SMILES | IC50 [1] [nM] | IC50 [2] [nM] | IC50 [3] [nM] | IC50 [4] [nM] | IC50 [5] [nM] | IC50 [6] [nM] | IC50 [7] [nM] | IC50 [8] [nM] | IC50 [9] [nM] | IC50 [10] [nM] | IC50 [11] [nM] | IC50 ([1]; read-out: in vitro binding capacity (IC50), DRB1*01:01) [nM] |
| --- | --- | --- | --- | --- | --- | --- | --- | --- | --- | --- | --- | --- |
| CC[C@H](C)[C@H](N)C(=O)N1CCC[C@H]1C(=O)N[C@@H](Cc1ccccc1)C(=O)N[C@@H](C)C(=O)N[C@@H](CCSC)C(=O)N[C@@H](CCC(N)=O)C(=O)N[C@@H](CCSC)C(=O)N[C@@H](C)C(=O)N[C@@H](Cc1ccc(O)cc1)C(=O)N[C@@H](CCCNC(=N)N)C(=O)N[C@@H](Cc1ccccc1)C(=O)N[C@@H](CC(N)=O)C(=O)NCC(=O)N[C@H](C(=O)NCC(=O)O)[C@@H](C)CC [peptide 180] | 58 | 11700 | 443 | 1610 | 25 | 553 | 7.9 | 23 | 2.2 | 13700 | 192 |  |
| CC[C@H](C)[C@H](NC(=O)[C@H](CC(=O)O)NC(=O)CNC(=O)[C@H](CC(C)C)NC(=O)[C@H](CS)NC(=O)[C@H](CC(=O)O)NC(=O)CNC(=O)[C@H](Cc1ccc(O)cc1)NC(=O)[C@H](CCC(N)=O)NC(=O)[C@H](CCCCN)NC(=O)[C@@H](NC(=O)[C@H](Cc1ccccc1)NC(=O)CNC(=O)[C@H](C)N)[C@@H](C)CC)C(=O)N[C@@H](C)C(=O)O [peptide 167] | 1100 |  | 836 | 950 | 740 | 22300 | 1560 | 3750 | 17000 |  | 716 |  |
| CC(C)[C@H](N)C(=O)N[C@@H](Cc1ccccc1)C(=O)N[C@@H](CC(N)=O)C(=O)N[C@@H](C)C(=O)N[C@H](C(=O)N[C@@H](CCCNC(=N)N)C(=O)N[C@@H](Cc1ccccc1)C(=O)N[C@@H](C)C(=O)N[C@@H](CO)C(=O)N[C@H](C(=O)N[C@@H](Cc1ccc(O)cc1)C(=O)N[C@@H](C)C(=O)N[C@@H](Cc1c[nH]c2ccccc12)C(=O)N[C@@H](CC(N)=O)C(=O)N[C@@H](CCCNC(=N)N)C(=O)O)C(C)C)[C@@H](C)O [peptide 69] |  | > 40000 | 853 | 976 | 2.7 | 3710 | 321 | 372 | 500 | > 40000 | 12 | 1030 |
| CC(C)[C@H](NC(=O)CNC(=O)[C@H](Cc1ccc(O)cc1)NC(=O)[C@H](CS)NC(=O)[C@H](CCCCN)NC(=O)[C@H](Cc1ccccc1)NC(=O)[C@@H](NC(=O)[C@H](CO)NC(=O)[C@H](Cc1ccccc1)NC(=O)[C@H](CO)NC(=O)[C@H](C)NC(=O)[C@@H](N)CO)[C@@H](C)O)C(=O)N[C@@H](CO)C(=O)N1CCC[C@H]1C(=O)N[C@H](C(=O)O)[C@@H](C)O [peptide 75] | 5290 | > 40000 | 3330 | 559 | 519 | 4670 | 117 | 626 | 11500 | > 40000 | 711 |  |
| CC[C@H](C)[C@H](NC(=O)[C@H](CCCCN)NC(=O)[C@@H](N)Cc1ccccc1)C(=O)N[C@@H](Cc1ccc(O)cc1)C(=O)N[C@@H](CO)C(=O)N[C@@H](CCCCN)C(=O)N[C@@H](Cc1c[nH]cn1)C(=O)N[C@H](C(=O)N1CCC[C@H]1C(=O)N[C@H](C(=O)N[C@@H](CC(N)=O)C(=O)N[C@@H](CC(C)C)C(=O)N[C@H](C(=O)N[C@@H](CCCNC(=N)N)C(=O)N[C@@H](CC(=O)O)C(=O)O)C(C)C)[C@@H](C)CC)[C@@H](C)O [peptide 41] | 64 | > 40000 | 5250 | 16300 | 2.7 | 125 | 13 | 229 | 7180 | 9040 | 611 |  |
